# Reference: publication PMC11187625, “New Labeled PET Analogues Enable the Functional Screening and Characterization of PET-Degrading Enzymes” (ACS Sustainable Chemistry & Engineering, 2024)
# Tested on: T1, A. niger lipase
# T1 construct: commercial preparation, Fluka Analytical
# Assay: fluorescence, 4-mU release
# Format: biochemical, Aspergillus niger
# Conditions: 0.1 M phosphate pH 7, 30 °C, 5% DMSO
# From the text: fluorescence, 4-mU release on A. niger lipase
row,Km [µM],SMILES
1,0.6 ± 0.1,"COC(=O)c1ccc(C(=O)OCCOC(=O)c2ccc(C(=O)Oc3ccc4c(C)cc(=O)oc4c3)cc2)cc1 [C, 2-((4-(Methoxycarbonyl)benzoyl)oxy)ethyl (4-Methyl-2-oxo-2H-chromen-7-yl) Terephthalate]"
2,5.7 ± 0.5,"COC(=O)c1ccc(C(=O)Oc2ccc3c(C)cc(=O)oc3c2)cc1 [A, Methyl (4-Methyl-2-oxo-2H-chromen-7-yl) Terephthalate]"
3,1 ± 0.1,"CCOCCOC(=O)c1ccc(C(=O)Oc2ccc3c(C)cc(=O)oc3c2)cc1 [B, 2-Ethoxyethyl (4-Methyl-2-oxo-2H-chromen-7-yl) Terephthalate]"
